# In patent US12077503B2, “Substituted cyclic amides and their use as herbicides” (FMC CORPORATION, priority 2015, dated 2024):
# Columns and labels:
# Test in all cases: Test E preemergence
# Assay type in all cases: in vivo
# [1] = tested on: field bindweed (Convolvulus arvensis); details: scale 0 to 100
# Summary of the method: (§1)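 Greenhouse test: seeds in silt loam treated preemergence, or 1- to 4-leaf plants in peat-based potting medium treated postemergence, with surfactant-containing solvent formulation of compound; assessed 14 to 21 d later. Scores use a 0 to 100 scale where 100 means complete control.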
# [2] = tested on: waterhemp (common waterhemp, Amaranthus rudis); details: scale 0 to 100
# Summary of the method: as §1
# [3] = tested on: nutsedge, yellow (yellow nutsedge, Cyperus esculentus); details: scale 0 to 100
# Summary of the method: as §1
# [4] = tested on: goosegrass (Eleusine indica); details: scale 0 to 100
# Summary of the method: as §1
# soybean (Glycine max) = details: scale 0 to 100
# Summary of the method: as §1
# [5] = tested on: foxtail, green (green foxtail, Setaria viridis); details: scale 0 to 100
# Summary of the method: as §1
# [6] = tested on: pigweed, palmer (palmer pigweed, Amaranthus palmeri); details: scale 0 to 100
# Summary of the method: as §1
# corn (Zea mays) = details: scale 0 to 100
# Summary of the method: as §1
# [7] = tested on: Panicum, fall (fall Panicum, Panicum dichotomiflorum); details: scale 0 to 100
# Summary of the method: as §1
# [8] = tested on: crabgrass, large (large crabgrass, Digitaria sangumnalis); details: scale 0 to 100
# Summary of the method: as §1
# [9] = tested on: barnyardgrass (Echinochloa crus-galli); details: scale 0 to 100
# Summary of the method: as §1
# [10] = tested on: foxtail, giant (giant foxtail, Setaria faberii); details: scale 0 to 100
# Summary of the method: as §1
# [11] = tested on: surinam grass (Brachiaria decumbens); details: scale 0 to 100
# Summary of the method: as §1
# [12] = tested on: lambsquarters (Chenopodium album); details: scale 0 to 100
# Summary of the method: as §1
# [13] = tested on: sandbur (southern sandbur, Cenchrus echinatus); details: scale 0 to 100
# Summary of the method: as §1
# [14] = tested on: crabgrass, Brazil (Brazilian crabgrass, Digitaria horizontalis); details: scale 0 to 100
# Summary of the method: as §1
# [15] = tested on: horseweed (Conyza canadensis); details: 31 g ai/ha, scale 0 to 100
# Summary of the method: as §1
# [16] = tested on: ragweed (common ragweed, Ambrosia elatior); details: scale 0 to 100
# Summary of the method: as §1
# [17] = tested on: nightshade (eastern black nightshade, Solanum ptycanthum); details: scale 0 to 100
# Summary of the method: as §1
# [18] = tested on: johnsongrass (Sorghum halepense); details: scale 0 to 100
# Summary of the method: as §1
# [19] = tested on: velvetleaf (Abutilon theophrasti); details: scale 0 to 100
# Summary of the method: as §1
structure (smiles),measurement,setting,value
CN1CC(c2cccc(C(F)(F)F)c2)C(C(=O)Nc2ccccc2S(C)(=O)=O)C1=O (centres unmarked) [Compound 637],Plant response rating: Field Bindweed,[1]; 31 g ai/ha,0
same,Plant response rating: Field Bindweed,[1]; 62 g ai/ha,0
same,Plant response rating: Field Bindweed,[1]; 125 g ai/ha,0
same,Plant response rating: Field Bindweed,[1]; 250 g ai/ha,35
same,Plant response rating: Waterhemp,[2]; 31 g ai/ha,50
same,Plant response rating: Waterhemp,[2]; 62 g ai/ha,40
same,Plant response rating: Waterhemp,[2]; 125 g ai/ha,65
same,Plant response rating: Waterhemp,[2]; 250 g ai/ha,85
same,"Plant response rating: Nutsedge, Yellow",[3]; 31 g ai/ha,0
same,"Plant response rating: Nutsedge, Yellow",[3]; 62 g ai/ha,0
same,"Plant response rating: Nutsedge, Yellow",[3]; 125 g ai/ha,0
same,"Plant response rating: Nutsedge, Yellow",[3]; 250 g ai/ha,35
same,Plant response rating: Goosegrass,[4]; 31 g ai/ha,0
same,Plant response rating: Goosegrass,[4]; 62 g ai/ha,0
same,Plant response rating: Goosegrass,[4]; 125 g ai/ha,65
same,Plant response rating: Goosegrass,[4]; 250 g ai/ha,90
same,Plant response rating: Soybean,soybean (Glycine max); 31 g ai/ha,0
same,Plant response rating: Soybean,soybean (Glycine max); 62 g ai/ha,10
same,Plant response rating: Soybean,soybean (Glycine max); 125 g ai/ha,25
same,Plant response rating: Soybean,soybean (Glycine max); 250 g ai/ha,35
same,"Plant response rating: Foxtail, Green",[5]; 31 g ai/ha,65
same,"Plant response rating: Foxtail, Green",[5]; 62 g ai/ha,75
same,"Plant response rating: Foxtail, Green",[5]; 125 g ai/ha,95
same,"Plant response rating: Foxtail, Green",[5]; 250 g ai/ha,98
same,"Plant response rating: Pigweed, Palmer",[6]; 31 g ai/ha,0
same,"Plant response rating: Pigweed, Palmer",[6]; 62 g ai/ha,0
same,"Plant response rating: Pigweed, Palmer",[6]; 125 g ai/ha,0
same,"Plant response rating: Pigweed, Palmer",[6]; 250 g ai/ha,65
same,Plant response rating: Corn,corn (Zea mays); 31 g ai/ha,0
same,Plant response rating: Corn,corn (Zea mays); 62 g ai/ha,0
same,Plant response rating: Corn,corn (Zea mays); 125 g ai/ha,35
same,Plant response rating: Corn,corn (Zea mays); 250 g ai/ha,70
same,"Plant response rating: Panicum, Fall",[7]; 31 g ai/ha,0
same,"Plant response rating: Panicum, Fall",[7]; 62 g ai/ha,35
same,"Plant response rating: Panicum, Fall",[7]; 125 g ai/ha,90
same,"Plant response rating: Panicum, Fall",[7]; 250 g ai/ha,95
same,"Plant response rating: Crabgrass, Large",[8]; 31 g ai/ha,90
same,"Plant response rating: Crabgrass, Large",[8]; 62 g ai/ha,95
same,"Plant response rating: Crabgrass, Large",[8]; 125 g ai/ha,98
same,"Plant response rating: Crabgrass, Large",[8]; 250 g ai/ha,98
same,Plant response rating: Barnyardgrass,[9]; 31 g ai/ha,85
same,Plant response rating: Barnyardgrass,[9]; 62 g ai/ha,70
same,Plant response rating: Barnyardgrass,[9]; 125 g ai/ha,80
same,Plant response rating: Barnyardgrass,[9]; 250 g ai/ha,95
same,"Plant response rating: Foxtail, Giant",[10]; 31 g ai/ha,75
same,"Plant response rating: Foxtail, Giant",[10]; 62 g ai/ha,95
same,"Plant response rating: Foxtail, Giant",[10]; 125 g ai/ha,98
same,"Plant response rating: Foxtail, Giant",[10]; 250 g ai/ha,98
same,Plant response rating: Surinam Grass,[11]; 31 g ai/ha,10
same,Plant response rating: Surinam Grass,[11]; 62 g ai/ha,50
same,Plant response rating: Surinam Grass,[11]; 125 g ai/ha,75
same,Plant response rating: Surinam Grass,[11]; 250 g ai/ha,90
same,Plant response rating: Lambsquarters,[12]; 62 g ai/ha,0
same,Plant response rating: Lambsquarters,[12]; 125 g ai/ha,90
same,Plant response rating: Lambsquarters,[12]; 250 g ai/ha,80
same,Plant response rating: Sandbur,[13]; 31 g ai/ha,0
same,Plant response rating: Sandbur,[13]; 62 g ai/ha,35
same,Plant response rating: Sandbur,[13]; 125 g ai/ha,90
same,Plant response rating: Sandbur,[13]; 250 g ai/ha,90
same,"Plant response rating: Crabgrass, Brazil",[14]; 31 g ai/ha,75
same,"Plant response rating: Crabgrass, Brazil",[14]; 62 g ai/ha,85
same,"Plant response rating: Crabgrass, Brazil",[14]; 125 g ai/ha,98
same,"Plant response rating: Crabgrass, Brazil",[14]; 250 g ai/ha,95
same,Plant response rating: Horseweed,[15],0
same,Plant response rating: Ragweed,[16]; 31 g ai/ha,0
same,Plant response rating: Ragweed,[16]; 62 g ai/ha,0
same,Plant response rating: Ragweed,[16]; 125 g ai/ha,20
same,Plant response rating: Ragweed,[16]; 250 g ai/ha,85
same,Plant response rating: Nightshade,[17]; 31 g ai/ha,0
same,Plant response rating: Nightshade,[17]; 62 g ai/ha,15
same,Plant response rating: Nightshade,[17]; 125 g ai/ha,25
same,Plant response rating: Nightshade,[17]; 250 g ai/ha,40
same,Plant response rating: Johnsongrass,[18]; 31 g ai/ha,0
same,Plant response rating: Johnsongrass,[18]; 62 g ai/ha,0
same,Plant response rating: Johnsongrass,[18]; 125 g ai/ha,25
same,Plant response rating: Johnsongrass,[18]; 250 g ai/ha,60
same,Plant response rating: Velvetleaf,[19]; 31 g ai/ha,0
same,Plant response rating: Velvetleaf,[19]; 62 g ai/ha,0
same,Plant response rating: Velvetleaf,[19]; 125 g ai/ha,30
same,Plant response rating: Velvetleaf,[19]; 250 g ai/ha,35
